Experimental data: patent US5039805A, “Novel benzoic and phenylacetic acid derivatives” (Hoffmann-La Roche Inc., priority 1988, dated 1991)
Where a SMILES comes first, the peptide text is derived from it. [ ]: non-standard residue; d: D form. The star is where a group is joined. 3Abz = Nc1cccc(C(=O)O)c1; Boc = CC(C)(C)OC(=O)*

Experiments:
[1] = molecular target: T1, fibrinogen receptor, glycoprotein IIb/IIIa (Homo sapiens, UniProt P05106+P08514); assay: inhibition of the binding of fibrinogen to the immobilized fibrinogen receptor (ELISA); conditions: fibrinogen binding to immobilized glycoprotein IIb/IIIa from human blood platelets, read-out: IC50 (inhibition of the binding of fibrinogen to the immobilized receptor by 50%)
T1 construct: obtained from Triton X-100 extracts of human blood platelets; from tissue
T1 sequence (P08514 32-887 limits assumed): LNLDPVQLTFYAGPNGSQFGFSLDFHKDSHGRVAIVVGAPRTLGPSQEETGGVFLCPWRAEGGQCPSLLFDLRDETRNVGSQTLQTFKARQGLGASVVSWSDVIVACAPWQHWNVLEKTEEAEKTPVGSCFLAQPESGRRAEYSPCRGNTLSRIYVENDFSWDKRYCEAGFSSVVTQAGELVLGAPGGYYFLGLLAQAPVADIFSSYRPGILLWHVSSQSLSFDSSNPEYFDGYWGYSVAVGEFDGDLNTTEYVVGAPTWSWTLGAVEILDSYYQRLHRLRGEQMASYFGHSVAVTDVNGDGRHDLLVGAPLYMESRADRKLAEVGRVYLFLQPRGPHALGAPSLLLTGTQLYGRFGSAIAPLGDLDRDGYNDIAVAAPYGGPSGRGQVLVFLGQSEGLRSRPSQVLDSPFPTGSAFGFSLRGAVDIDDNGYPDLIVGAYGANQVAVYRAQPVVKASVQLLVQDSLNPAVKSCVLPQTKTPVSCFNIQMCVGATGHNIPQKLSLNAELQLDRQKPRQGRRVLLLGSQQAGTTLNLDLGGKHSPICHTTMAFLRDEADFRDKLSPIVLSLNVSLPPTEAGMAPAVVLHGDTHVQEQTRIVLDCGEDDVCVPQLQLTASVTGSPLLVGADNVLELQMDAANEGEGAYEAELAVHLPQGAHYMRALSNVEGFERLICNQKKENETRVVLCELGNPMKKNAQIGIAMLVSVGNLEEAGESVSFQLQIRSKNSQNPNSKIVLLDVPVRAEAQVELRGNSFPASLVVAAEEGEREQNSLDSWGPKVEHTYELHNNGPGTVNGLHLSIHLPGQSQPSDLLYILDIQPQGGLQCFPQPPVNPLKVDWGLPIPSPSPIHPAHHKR
T1 sequence (P08514 891-1039 limits assumed): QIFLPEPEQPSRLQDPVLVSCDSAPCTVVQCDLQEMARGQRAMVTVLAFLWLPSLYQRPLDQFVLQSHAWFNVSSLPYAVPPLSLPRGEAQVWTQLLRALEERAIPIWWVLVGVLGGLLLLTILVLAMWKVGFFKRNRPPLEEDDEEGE
T1 sequence (P05106 27-788): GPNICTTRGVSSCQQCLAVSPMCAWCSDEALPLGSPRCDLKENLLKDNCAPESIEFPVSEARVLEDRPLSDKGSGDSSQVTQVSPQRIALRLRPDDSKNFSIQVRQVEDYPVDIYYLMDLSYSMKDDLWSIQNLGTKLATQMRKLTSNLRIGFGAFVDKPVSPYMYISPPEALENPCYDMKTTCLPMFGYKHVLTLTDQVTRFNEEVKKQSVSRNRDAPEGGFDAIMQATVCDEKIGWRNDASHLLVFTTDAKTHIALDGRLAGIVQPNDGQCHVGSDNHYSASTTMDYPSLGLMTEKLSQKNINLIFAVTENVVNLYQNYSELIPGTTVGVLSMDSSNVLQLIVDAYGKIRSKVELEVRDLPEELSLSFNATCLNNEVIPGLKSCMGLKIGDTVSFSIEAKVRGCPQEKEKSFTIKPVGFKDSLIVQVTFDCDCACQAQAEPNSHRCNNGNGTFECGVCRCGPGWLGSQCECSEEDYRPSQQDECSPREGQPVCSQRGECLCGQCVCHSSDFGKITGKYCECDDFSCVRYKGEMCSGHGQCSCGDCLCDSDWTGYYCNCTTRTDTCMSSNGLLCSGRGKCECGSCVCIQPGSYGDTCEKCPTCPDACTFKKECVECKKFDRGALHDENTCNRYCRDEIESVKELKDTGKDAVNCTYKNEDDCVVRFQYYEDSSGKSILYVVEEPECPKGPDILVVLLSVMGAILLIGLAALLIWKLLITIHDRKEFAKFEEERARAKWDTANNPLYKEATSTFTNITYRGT
Method: The glycoprotein IIb/IIIa is obtained from Triton X-100 extracts of human blood platelets and is purified by lectin affinity chromatography (Analytical Biochemistry 151, 1985, 169-177) and chromatography on an Arg-Gly-Asp-Ser affinity column (Science 231, 1986, 1559-62). The thus-obtained receptor protein is bonded to microtitre plates. The specific binding of fibrinogen to the immobilized receptor is determined with the aid of an ELISA system ("enzyme-linked immunosorbent assay"). The IC50 values hereinafter correspond to that concentration of the test substance which is required to inhibit the binding of fibrinogen to the immobilized receptor by 50%: […]

[2] = LD50 in the mouse (acute toxicity); conditions: in vivo
Method: The compounds of formula I are non-toxic. Thus, the product of Example 10 has a LD50 of more than 1000 mg/kg intraperitoneally and more than 2000 mg/kg perorally in the mouse.

| SMILES | IC50 [1] [µM] | LD50 ([2]; ip, intraperitoneally) [mg/kg] | LD50 ([2]; po, perorally) [mg/kg] |
| --- | --- | --- | --- |
| N=C(N)NCCCCC(=O)Nc1cccc(C(=O)NCCC(=O)O)c1 [Example 22, N-[m-(5-guanidinovaleramido)benzoyl]-β-alanine] | 0.25 |  |  |
| CC(C)[C@H](NC(=O)[C@H](CC(=O)O)NC(=O)c1cccc(NC(=O)[C@@H](N)CCCNC(=N)N)c1)C(=O)O [Example 14, N-[N-[m-(L-arginylamino)benzoyl]-L-α-aspartyl]-L-valine] (H-R[3Abz]DV-OH) | 0.3 |  |  |
| N=C(N)c1ccc(C(=O)Nc2cccc(C(=O)NCCC(=O)O)c2)cc1 [Example 35, N-[m-(p-amidinobenzamido)-benzoyl]-β-alanine] | 0.0001 |  |  |
| N=C(N)NCc1ccc(C(=O)Nc2cccc(C(=O)NCCC(=O)O)c2)cc1 [Example 13, N-[m-(α-guanidino-p-toluamido)benzoyl]-β-alanine] | 0.22 |  |  |
| N=C(N)c1ccc(C(=O)Nc2cc(C(=O)NCCC(=O)O)ccc2OCc2ccccc2)cc1 [Example 55, N-[3-(p-amidinobenzamido)-4-(benzyloxy)benzoyl]-β-alanine] | 0.025 |  |  |
| N=C(N)N1CCC(C(=O)Nc2cccc(C(=O)N[C@@H](CC(=O)O)C(=O)N[C@@H](Cc3ccccc3)C(=O)O)c2)CC1 [Example 64, N-[N-[m-(1-amidino-4-piperidinecarboxamido)benzoyl]-L-α-aspartyl]-3-phenyl-L-alanine] | 0.22 |  |  |
| NCCCCC(=O)Nc1cccc(C(=O)NCCC(=O)O)c1 [Example 9, N-[m-(5-aminovaleramido)benzoyl]-β-alanine] | 0.24 |  |  |
| N=C(N)c1ccc(C(=O)Nc2cccc(C(=O)N[C@@H](CC(=O)O)C(=O)N[C@@H](Cc3cccc4ccccc34)C(=O)O)c2)cc1 [Example 34, N-[N-[m-(p-amidinobenzamido)benzoyl]-L-α-aspartyl]-3-(1-naphthyl)-L-alanine] | 0.046 |  |  |
| N=C(N)c1ccc(C(=O)Nc2ccc(C(=O)NCCC(=O)O)cc2)cc1 [Example 51, N-[p-(p-amidinobenzamido)benzoyl]-β-alanine] | 0.017 |  |  |
| NCCCCCC(=O)Nc1ccc(Cl)c(C(=O)NCCC(=O)O)c1 [Example 17, N-[5-(6-aminohexanamido)-2-chlorobenzoyl]-β-alanine] | 0.38 |  |  |
| NCc1ccc(CC(=O)Nc2cccc(C(=O)NCCC(=O)O)c2)cc1 [Example 32, N-[m-[2-(α-amino-p-tolyl)acetamido]benzoyl]-β-alanine] | 0.12 |  |  |
| CC(C)[C@H](NC(=O)[C@H](CC(=O)O)NC(=O)c1cccc(NC(=O)[C@H](CCCN=C(N)N)NC(=O)OC(C)(C)C)c1)C(=O)O [Example 15, [m-(Boc-Arg-NH)benzoyl]-Asp-Val] (Boc-R[3Abz]DV-OH) | 0.08 |  |  |
| NCCCCC(=O)Nc1ccc(OCc2ccccc2)c(C(=O)NCCC(=O)O)c1 [Example 46, N-[5-(5-aminovaleramido)-2-(benzyloxy)benzoyl]-β-alanine] | 0.15 |  |  |
| N=C(N)c1ccc(CC(=O)Nc2cccc(C(=O)NCCC(=O)O)c2)cc1 [Example 52, N-[m-[2-(p-amidinophenyl)acetamido]benzoyl]-β-alanine] | 0.14 |  |  |
| N=C(N)c1ccc(C(=O)Nc2cc(C(=O)NCCC(=O)O)ccc2O)cc1 [Example 56, N-[3-(p-amidinobenzamido)-4-hydroxybenzoyl]-β-alanine] | 0.005 |  |  |
| NCCCCCCC(=O)Nc1cccc(C(=O)NCCC(=O)O)c1 [Example 21, N-[m-(7-aminoheptanamido)benzoyl]-β-alanine] | 0.46 |  |  |
| NCCCCCC(=O)Nc1cccc(C(=O)NCCC(=O)O)c1 [Example 5, N-[m-(6-aminohexanamido)benzoyl]-β-alanine] | 0.27 |  |  |
| N=C(N)NCCCC(=O)Nc1cccc(C(=O)NCCC(=O)O)c1 [Example 24, N-[m-(4-guanidinobutyramido)benzoyl]-β-alanine] | 0.38 |  |  |
| NCc1ccc(C(=O)Nc2cccc(C(=O)NCCC(=O)O)c2)cc1 [Example 8, N-[m-(α-amino-p-toluamido)benzoyl]-β-alanine] | 0.16 |  |  |
| N=C(N)NCC(=O)Nc1cccc(C(=O)NCCC(=O)O)c1 [Example 36, N-[m-[(N-amidinoglycyl)amino]benzoyl]-β-alanine] | 0.27 |  |  |
| NCCCCC(=O)Nc1cccc(C(=O)NC(CC(=O)O)c2ccc3c(c2)CCC3)c1 (racemic) [Example 41, DL-N-[m-(5-aminovaleramido)benzoyl]-3-(5-indanyl)-β-alanine] | 0.28 |  |  |
| N=C(N)c1ccc(C(=O)Nc2ccc(OCc3ccccc3)c(C(=O)NCCC(=O)O)c2)cc1 [Example 54, N-[5-(p-amidinobenzamido)-2-(benzyloxy)benzoyl]-β-alanine] | 0.01 |  |  |
| O=C(O)CCNC(=O)c1cccc(NC(=O)CCC2CCNCC2)c1 [Example 53, N-[m-[3-(4-piperidinyl)propionamido]benzoyl]-β-alanine] | 0.07 |  |  |
| N=C(N)NCCCCC(=O)Nc1ccc(OCc2ccccc2)c(C(=O)NCCC(=O)O)c1 [Example 47, N-[2-(benzyloxy)-5-(5-guanidinovaleramido)benzoyl]-β-alanine] | 0.18 |  |  |
| CC(C)(C)OC(=O)N[C@@H](CCCN)C(=O)Nc1cccc(C(=O)NCCC(=O)O)c1 [Example 28, N-[m-[[(S)-N2-(t-butoxycarbonyl)-L-ornithyl]amino]benzoyl]-β-alanine] | 0.14 |  |  |
| N=C(N)NCCCCCC(=O)Nc1cccc(C(=O)NCCC(=O)O)c1 [Example 10, N-[m-(6-guanidinohexanamido)benzoyl]-β-alanine] | 0.26 | > 1000 | > 2000 |
| COC(=O)[C@H](CC(=O)O)NC(=O)c1cccc(NC(=O)c2ccc(C(=N)N)cc2)c1 [Example 60, (S)-3-[m-(p-amidinobenzamido)benzamido]-3-(methoxycarbonyl)propionic acid] | 0.05 |  |  |
| N=C(N)c1ccc(CC(=O)Nc2cccc(C(=O)N[C@@H](CC(=O)O)C(=O)N[C@@H](Cc3ccccc3)C(=O)O)c2)cc1 [Example 65, N-[N-[m-[2-(p-amidinophenyl)acetamido]benzoyl]-L-α-aspartyl]-3-phenyl-L-alanine] | 0.084 |  |  |
